We go through two molecules from doi:10.1101/2021.06.23.449549v1 (biorxiv, 2021).

Series [1] addresses T1, AtPQT11/CYP86A4 (Arabidopsis thaliana, UniProt Q9LMM1).
T1 sequence (Q9LMM1 1-554): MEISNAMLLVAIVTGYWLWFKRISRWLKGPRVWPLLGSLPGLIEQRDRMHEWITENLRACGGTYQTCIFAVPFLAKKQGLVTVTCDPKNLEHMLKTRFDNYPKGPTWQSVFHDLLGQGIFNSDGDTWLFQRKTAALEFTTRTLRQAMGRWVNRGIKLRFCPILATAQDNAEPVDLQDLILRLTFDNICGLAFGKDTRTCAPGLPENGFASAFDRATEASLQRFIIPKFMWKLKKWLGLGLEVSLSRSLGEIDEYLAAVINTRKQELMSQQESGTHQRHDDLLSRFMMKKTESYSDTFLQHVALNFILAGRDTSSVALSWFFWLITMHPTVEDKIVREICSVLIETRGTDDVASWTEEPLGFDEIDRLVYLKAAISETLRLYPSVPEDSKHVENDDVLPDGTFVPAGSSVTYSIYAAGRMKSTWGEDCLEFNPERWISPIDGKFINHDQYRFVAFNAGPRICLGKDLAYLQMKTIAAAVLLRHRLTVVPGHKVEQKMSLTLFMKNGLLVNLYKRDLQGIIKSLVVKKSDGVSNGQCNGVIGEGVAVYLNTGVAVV
Type of series: biochemical. Particulars: 2 mM NADPH in excess; 25 mM phosphate pH 7.0; 27 °C; N-demethylation.

Substrate in series [2]: NC(=O)C1=CN([C@@H]2O[C@H](COP(=O)(O)OP(=O)(O)OC[C@H]3O[C@@H](n4cnc5c(N)ncnc54)[C@H](OP(=O)(O)O)[C@@H]3O)[C@@H](O)[C@H]2O)C=CC1
Briefly: purified protein. It counts as biochemical, Arabidopsis thaliana. The note with it: pH 7.0; 27.0 °C; varied: cofactor.

With `C[n+]1ccc(-c2cc[n+](C)cc2)cc1` [paraquat, 1,1’-dimethyl-4,4’-bipyridynium dichloride], the Km in series [1] came out at 1.34 µM.

B1: AtPQT11/CYP86A4 (Arabidopsis thaliana) (protein)
chain: T1 sequence (Q9LMM1 1-554)
B1: the Km in series [2] is given as 1155 (±214.9) μM.
